# Reference: PMC6199744, “Development of Chemical Proteomics for the Folateome and Analysis of the Kinetoplastid Folateome” (ACS Infectious Diseases, 2018)
# System: L. major lysate proteins
# Experiment: Multitargeted bead mixture chemoproteomics, single concentration competition, proteome-wide
# Type: binding
# Conditions: for fold change: vehicle control = 1
smiles,measurement,setting,value
NCCCNc1ccc(C(=O)NC(CCC(=O)O)C(=O)O)cc1 (stereo not drawn) [compound 7],fold change vs vehicle control,"protein LMJF.28.0110 PROTEASOME BETA 3 SUBUNIT, PUTATIVE",0.99
same,fold change vs vehicle control,"protein LMJF.28.0490 PROPIONYL-COA C[…] CHAIN, PUTATIVE",1.21
same,fold change,"protein LMJF.28.0710 HYPOTHETICAL PROTEIN, CONSERVED (SNARE associated Golgi protein, putative)",0.86
same,fold change vs vehicle control,"protein LMJF.28.0930 HYPOTHETICAL PROTEIN, CONSERVED",0.98
same,fold change vs vehicle control,protein LMJF.28.0960 40S RIBOSOMAL PROTEIN S14,0.99
same,fold change vs vehicle control,"protein LMJF.28.1530 ATP DEPENDENT DEAD-BOX HELICASE, PUTATIVE",0.89
same,fold change relative to vehicle control,"protein LMJF.28.1730, PROTEASOME REGULATORY NON-ATP-ASE SUBUNIT 2, PUTATIVE",1.27
same,fold change relative to vehicle control,"protein LMJF.28.2310, EUKARYOTIC TRANSLATION INITIATION FACTOR, PUTATIVE",0.98
same,fold change vs vehicle control,"protein LMJF.28.2430 VACUOLAR ATP SYNTHASE SUBUNIT B, PUTATIVE",1.03
same,fold change relative to vehicle control,"protein LMJF.28.2770, HEAT-SHOCK PROTEIN HSP70, PUTATIVE",1.05
same,fold change,"protein LMJF.28.2910 GLUTAMATE DEHYDROGENASE, PUTATIVE",0.88
same,fold change vs vehicle control,"protein LMJF.29.0120 PROTEASOME REGULATORY NON-ATPASE SUBUNIT, PUTATIVE",1.1
same,fold change,"protein LMJF.29.0620 ATP-BINDING CASSETTE PROTEIN SUBFAMILY A, MEMBER 10, PUTATIVE",0.79
same,fold change vs vehicle control,"protein LMJF.29.0760 […] BI[…], PUTATIVE,HEAT SHOCK PROTEIN 90, PUTATIVE",1.16
same,fold change relative to vehicle control,"protein LMJF.29.0850, HIGH MOBILITY GROUP PROTEIN HOMOLOG TDP-1, PUTATIVE",0.78
same,fold change vs vehicle control,"protein LMJF.29.0940 HY[…], CONSERVED",1.11
same,fold change vs vehicle control,protein LMJF.29.1160 TRYPAREDOXIN,0.93
same,fold change vs vehicle control,"protein LMJF.29.1240 HY[…], UNKNOWN FUNCTION",1.04
same,fold change vs vehicle control,protein LMJF.29.1270 100 kDa heat shock protein (Hsp100),1.12
same,fold change vs vehicle control,"protein LMJF.29.1310 CARNITINE/CHOLINE ACETYLTRANSFERASE, PUTATIVE",1
same,fold change relative to vehicle control,"protein LMJF.29.1760, PARAFLAGELLAR ROD PROTEIN 1D, PUTATIVE",1.2
same,fold change vs vehicle control,"protein LMJF.29.1780 DIPHTHAMIDE SYNTHESIS PROTEIN, PUTATIVE",0.94
same,fold change,"protein LMJF.29.2200 GTP-BINDING PROTEIN, PUTATIVE (dynamin-1-like protein)",0.93
same,fold change,protein LMJF.29.2310 ENOYL-COA HYDRATASE/ISOMERASE-LIKE PROTEIN,0.93
same,fold change vs vehicle control,"protein LMJF.29.2360 ASPARTYL AMINOPEPTIDASE, PUTATIVE,METALLO-PEPTIDASE, CLAN MH, FAMILY M20",1.05
same,fold change,protein LMJF.29.2860 40S RIBOSOMAL PROTEIN S19-LIKE PROTEIN,1.02
same,fold change,"protein LMJF.30.0580 HYPOTHETICAL PROTEIN, CONSERVED (AMP-binding enzyme, putative)",0.85
same,fold change,"protein LMJF.30.0850 SURFACE PROTEIN AMASTIN, PUTATIVE",0.92
same,fold change vs vehicle control,"protein LMJF.30.1250 PYRIDOXAL KINASE, PUTATIVE",1.11
same,fold change vs vehicle control,"protein LMJF.30.2580 RETICULON DOMAIN PROTEIN, 22 KDA POTENTIALLY AGGRAVATING PROTEIN (PAPLE22)",0.95
same,fold change relative to vehicle control,"protein LMJF.30.3090, HY[…], CONSERVED (RNA-binding protein 42, putative)",1.06
same,fold change vs vehicle control,"protein LMJF.30.3240 GLUTAMYL-TRNA SYNTHETASE, PUTATIVE",0.99
same,fold change,"protein LMJF.30.3430 HYPOTHETICAL PROTEIN, CONSERVED (protein mkt1, putative)",1
same,fold change,protein LMJF.30.3520 S-ADENOSYLMETHIONINE SYNTHETASE,0.93
same,fold change,"protein LMJF.30.3570 ZINC FINGER-DOMAIN PROTEIN, PUTATIVE",0.92
same,fold change relative to vehicle control,"protein LMJF.31.0080, HY[…], CONSERVED",1.21
same,fold change vs vehicle control,"protein LMJF.31.0340 AMINO ACID PERMEASE, PUTATIVE",1.04
same,fold change,"protein LMJF.31.1130 N-ACYL-L-AMINO ACID AMIDOHYDROLASE, PUTATIVE",1.03
same,fold change vs vehicle control,protein LMJF.31.1640 THIOLASE PROTEIN-LIKE PROTEIN,0.99
same,fold change relative to vehicle control,"protein LMJF.31.2150, PROSTAGLANDIN F2-ALPHA SYNTHASE/D-ARABINOSE DEHYDROGENASE",2.99
same,fold change vs vehicle control,"protein LMJF.31.2250 3,2-TRANS-ENOYL-COA ISOMERASE, MIT[…], PUTATIVE",1.97
same,fold change vs vehicle control,"protein LMJF.32.0750 RNA BINDING PROTEIN, PUTATIVE",0.99
same,fold change vs vehicle control,"protein LMJF.32.1060 DYNEIN, PUTATIVE",1.08
same,fold change relative to vehicle control,"protein LMJF.32.1820, IRON […], PUTATIVE",1.09
same,fold change relative to vehicle control,"protein LMJF.32.2320, C-14 STEROL REDUCTASE, PUTATIVE",1.65
same,fold change vs vehicle control,protein LMJF.32.3870 MYOSIN XXI,0.92
same,fold change relative to vehicle control,"protein LMJF.33.0240, THIOL-DEPENDENT REDUCTASE 1",1.07
same,fold change,"protein LMJF.33.0280 HYPOTHETICAL PROTEIN, CONSERVED",0.96
same,fold change relative to vehicle control,"protein LMJF.33.0890, HYPOTHETICAL PROTEIN, CONSERVED",0.93
same,fold change vs vehicle control,"protein LMJF.33.1070 HY[…], UNKNOWN FUNCTION",1.09
same,fold change vs vehicle control,"protein LMJF.33.1330 CYSTEINE CONJUGATE BETA-LYASE, AMINOTRANSFERASE- LIKE PROTEIN",0.98
same,fold change,"protein LMJF.33.1590 HYPOTHETICAL PROTEIN, CONSERVED (3-ketoacyl-CoA reductase, putative)",1
same,fold change relative to vehicle control,"protein LMJF.33.1860, ATP-BINDING CASSETTE PROTEIN SUBFAMILY D, MEMBER 3, PUTATIVE",1.06
same,fold change relative to vehicle control,"protein LMJF.33.2340, SUCCINYL-COA:3-KETOACID-COENZYME A TRANSFERASE, MIT[…], PUTATIVE",1.19
same,fold change relative to vehicle control,"protein LMJF.33.2440, HY[…], CONSERVED",1.14
same,fold change relative to vehicle control,"protein LMJF.33.2540, CARBOXYPEPTIDASE, PUTATIVE,METALLO-PEPTIDASE, CLAN MA(E), FAMILY M32",1.06
same,fold change,"protein LMJF.33.3150 40S RIBOSOMAL PROTEIN S13, PUTATIVE",0.96
same,fold change relative to vehicle control,"protein LMJF.34.0140, MALATE DEHYDROGENASE",6.88
same,fold change vs vehicle control,protein LMJF.34.0440 RIBOSOMAL PROTEIN S25,1.13
same,fold change relative to vehicle control,"protein LMJF.34.2580, HY[…], CONSERVED (ALBA-domain protein 3)",1.04
same,fold change relative to vehicle control,"protein LMJF.34.3250, PUTATIVE PYRUVATE/INDOLE-PYRUVATE CARBOXYLASE, PUTATIVE",1.08
same,fold change,"protein LMJF.34.4370 20S PROTEASOME BETA 7 SUBUNIT, (PUTATIVE)",0.97
same,fold change vs vehicle control,"protein LMJF.34.4620 HYPOTHETICAL PROTEIN, CONSERVED",1.3
same,fold change,"protein LMJF.35.0070 PROHIBITIN, PUTATIVE",1.03
same,fold change vs vehicle control,"protein LMJF.35.0360 ENOYL-COA HYDRATASE/ISOMERASE FAMILY PROTEIN, CONSERVED",1.09
same,fold change,"protein LMJF.35.0370 ATP-DEPENDENT DEAD-BOX RNA HELICASE, PUTATIVE",0.98
